# Source: ChEMBL document CHEMBL1150977, “A quantitative analysis of kinase inhibitor selectivity” (Nat Biotechnol, 2008)
# Molecular target: BMP-2-inducible protein kinase (Homo sapiens, UniProt Q9NSY1)
# Sequence (Q9NSY1 whole entry): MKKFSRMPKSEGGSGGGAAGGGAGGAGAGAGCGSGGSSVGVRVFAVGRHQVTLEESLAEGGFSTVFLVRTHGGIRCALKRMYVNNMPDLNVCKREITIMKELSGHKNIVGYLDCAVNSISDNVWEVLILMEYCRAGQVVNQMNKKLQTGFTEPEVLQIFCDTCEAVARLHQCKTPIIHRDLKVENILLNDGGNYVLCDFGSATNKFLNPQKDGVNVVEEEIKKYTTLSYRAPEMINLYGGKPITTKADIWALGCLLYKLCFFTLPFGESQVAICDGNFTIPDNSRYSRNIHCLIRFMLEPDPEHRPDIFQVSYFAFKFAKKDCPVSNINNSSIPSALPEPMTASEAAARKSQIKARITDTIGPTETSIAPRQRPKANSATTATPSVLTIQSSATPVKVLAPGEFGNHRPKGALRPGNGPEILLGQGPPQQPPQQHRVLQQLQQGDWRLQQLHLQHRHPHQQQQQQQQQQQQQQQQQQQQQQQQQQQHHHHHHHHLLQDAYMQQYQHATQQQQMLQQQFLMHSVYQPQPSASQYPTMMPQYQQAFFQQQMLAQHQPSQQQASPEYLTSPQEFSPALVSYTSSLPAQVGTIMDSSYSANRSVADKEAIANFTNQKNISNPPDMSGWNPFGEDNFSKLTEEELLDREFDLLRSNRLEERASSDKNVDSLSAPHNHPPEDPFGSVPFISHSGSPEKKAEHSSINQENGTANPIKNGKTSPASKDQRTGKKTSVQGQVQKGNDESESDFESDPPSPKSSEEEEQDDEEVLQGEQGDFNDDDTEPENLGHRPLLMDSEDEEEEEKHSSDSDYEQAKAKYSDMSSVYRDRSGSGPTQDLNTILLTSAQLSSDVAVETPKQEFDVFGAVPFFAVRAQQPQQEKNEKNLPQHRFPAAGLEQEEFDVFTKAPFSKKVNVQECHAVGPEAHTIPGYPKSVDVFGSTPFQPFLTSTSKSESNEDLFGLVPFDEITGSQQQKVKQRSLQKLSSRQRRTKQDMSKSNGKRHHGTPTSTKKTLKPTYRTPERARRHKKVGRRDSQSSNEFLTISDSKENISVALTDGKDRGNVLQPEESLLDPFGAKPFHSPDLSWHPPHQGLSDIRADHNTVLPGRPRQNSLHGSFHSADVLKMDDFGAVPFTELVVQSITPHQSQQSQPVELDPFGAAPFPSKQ
row,Compound,Kd
1,Oc1ccc(-c2nc(-c3ccncc3)c(-c3ccc(F)cc3)[nH]2)cc1 [SB-202190],> 10 µM
2,COCC(=O)NC/C=C/c1ccc2ncnc(Nc3ccc(Oc4ccc(C)nc4)c(C)c3)c2c1 [CP-724714],> 10 µM

# Molecular target: Tyrosine-protein kinase ABL1 (Homo sapiens, UniProt P00519, H396P)
row,Compound,Kd
1,Oc1ccc(-c2nc(-c3ccncc3)c(-c3ccc(F)cc3)[nH]2)cc1 [SB-202190],> 10 µM
2,COCC(=O)NC/C=C/c1ccc2ncnc(Nc3ccc(Oc4ccc(C)nc4)c(C)c3)c2c1 [CP-724714],> 10 µM

# Molecular target: T1, TGF-beta receptor type-1 (Homo sapiens, UniProt P36897)
# T1 sequence (P36897 whole entry): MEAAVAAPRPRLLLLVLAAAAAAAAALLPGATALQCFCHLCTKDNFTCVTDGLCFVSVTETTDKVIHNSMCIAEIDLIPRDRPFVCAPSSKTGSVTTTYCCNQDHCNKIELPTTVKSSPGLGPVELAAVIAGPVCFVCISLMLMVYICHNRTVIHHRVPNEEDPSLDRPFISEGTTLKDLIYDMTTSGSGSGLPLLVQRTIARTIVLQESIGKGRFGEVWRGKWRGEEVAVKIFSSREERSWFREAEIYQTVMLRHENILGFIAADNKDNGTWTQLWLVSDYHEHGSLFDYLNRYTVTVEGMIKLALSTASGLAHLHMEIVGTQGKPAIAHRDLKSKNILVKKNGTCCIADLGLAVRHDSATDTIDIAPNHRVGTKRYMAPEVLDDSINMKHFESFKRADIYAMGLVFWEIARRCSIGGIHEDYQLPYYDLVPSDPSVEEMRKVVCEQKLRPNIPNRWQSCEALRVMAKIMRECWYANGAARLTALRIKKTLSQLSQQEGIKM
row,Compound,Kd
1,Oc1ccc(-c2nc(-c3ccncc3)c(-c3ccc(F)cc3)[nH]2)cc1 [SB-202190],> 10 µM
2,COCC(=O)NC/C=C/c1ccc2ncnc(Nc3ccc(Oc4ccc(C)nc4)c(C)c3)c2c1 [CP-724714],> 10 µM

# Molecular target: Dual specificity protein kinase CLK4 (Homo sapiens, UniProt Q9HAZ1)
# Sequence (Q9HAZ1 whole entry): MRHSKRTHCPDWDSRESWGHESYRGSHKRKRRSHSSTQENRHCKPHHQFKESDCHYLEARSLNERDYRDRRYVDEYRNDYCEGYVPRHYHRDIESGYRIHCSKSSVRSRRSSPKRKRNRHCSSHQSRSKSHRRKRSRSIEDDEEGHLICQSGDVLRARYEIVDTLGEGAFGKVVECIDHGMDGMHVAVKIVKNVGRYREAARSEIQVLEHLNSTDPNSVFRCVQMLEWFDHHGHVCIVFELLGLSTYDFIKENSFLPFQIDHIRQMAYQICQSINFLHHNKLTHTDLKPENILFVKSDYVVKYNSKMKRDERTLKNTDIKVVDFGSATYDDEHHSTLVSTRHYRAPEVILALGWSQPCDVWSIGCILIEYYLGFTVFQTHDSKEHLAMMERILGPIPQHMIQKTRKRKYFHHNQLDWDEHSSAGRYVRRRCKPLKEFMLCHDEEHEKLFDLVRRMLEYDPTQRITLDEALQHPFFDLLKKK
row,Compound,Kd
1,Oc1ccc(-c2nc(-c3ccncc3)c(-c3ccc(F)cc3)[nH]2)cc1 [SB-202190],> 10 µM
2,COCC(=O)NC/C=C/c1ccc2ncnc(Nc3ccc(Oc4ccc(C)nc4)c(C)c3)c2c1 [CP-724714],> 10 µM

# Molecular target: Ephrin type-A receptor 5 (Homo sapiens, UniProt P54756)
row,Compound,Kd
1,Oc1ccc(-c2nc(-c3ccncc3)c(-c3ccc(F)cc3)[nH]2)cc1 [SB-202190],> 10 µM
2,COCC(=O)NC/C=C/c1ccc2ncnc(Nc3ccc(Oc4ccc(C)nc4)c(C)c3)c2c1 [CP-724714],> 10 µM

# Molecular target: BDNF/NT-3 growth factors receptor (Homo sapiens, UniProt Q16620)
# Sequence (Q16620 whole entry): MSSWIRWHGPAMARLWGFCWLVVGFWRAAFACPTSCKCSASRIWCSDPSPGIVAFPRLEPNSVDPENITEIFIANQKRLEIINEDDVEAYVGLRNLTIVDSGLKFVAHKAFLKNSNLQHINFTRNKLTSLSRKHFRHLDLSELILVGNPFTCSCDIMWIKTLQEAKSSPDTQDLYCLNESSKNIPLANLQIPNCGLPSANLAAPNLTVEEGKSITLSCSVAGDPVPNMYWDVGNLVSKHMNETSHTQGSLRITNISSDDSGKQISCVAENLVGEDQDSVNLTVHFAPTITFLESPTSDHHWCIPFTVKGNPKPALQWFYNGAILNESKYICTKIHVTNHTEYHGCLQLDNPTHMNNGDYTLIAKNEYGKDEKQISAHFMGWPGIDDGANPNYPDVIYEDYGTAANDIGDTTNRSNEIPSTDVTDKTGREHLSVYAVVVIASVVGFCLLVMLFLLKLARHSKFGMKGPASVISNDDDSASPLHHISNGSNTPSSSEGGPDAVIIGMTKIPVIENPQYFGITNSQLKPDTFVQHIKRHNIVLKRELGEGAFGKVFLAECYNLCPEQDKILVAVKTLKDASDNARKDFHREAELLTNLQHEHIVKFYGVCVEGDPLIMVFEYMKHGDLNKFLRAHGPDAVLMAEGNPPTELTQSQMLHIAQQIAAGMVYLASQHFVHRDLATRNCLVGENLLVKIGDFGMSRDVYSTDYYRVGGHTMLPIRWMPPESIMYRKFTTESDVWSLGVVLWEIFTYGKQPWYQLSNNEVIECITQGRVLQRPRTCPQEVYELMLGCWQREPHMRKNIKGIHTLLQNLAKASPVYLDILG
row,Compound,Kd
1,Oc1ccc(-c2nc(-c3ccncc3)c(-c3ccc(F)cc3)[nH]2)cc1 [SB-202190],> 10 µM
2,COCC(=O)NC/C=C/c1ccc2ncnc(Nc3ccc(Oc4ccc(C)nc4)c(C)c3)c2c1 [CP-724714],> 10 µM

# Molecular target: Macrophage colony-stimulating factor 1 receptor (Homo sapiens, UniProt P07333)
row,Compound,Kd
1,Oc1ccc(-c2nc(-c3ccncc3)c(-c3ccc(F)cc3)[nH]2)cc1 [SB-202190],> 10 µM
2,COCC(=O)NC/C=C/c1ccc2ncnc(Nc3ccc(Oc4ccc(C)nc4)c(C)c3)c2c1 [CP-724714],> 10 µM

# Molecular target: T2, Ephrin type-B receptor 4 (Homo sapiens, UniProt P54760)
# T2 sequence (P54760 whole entry): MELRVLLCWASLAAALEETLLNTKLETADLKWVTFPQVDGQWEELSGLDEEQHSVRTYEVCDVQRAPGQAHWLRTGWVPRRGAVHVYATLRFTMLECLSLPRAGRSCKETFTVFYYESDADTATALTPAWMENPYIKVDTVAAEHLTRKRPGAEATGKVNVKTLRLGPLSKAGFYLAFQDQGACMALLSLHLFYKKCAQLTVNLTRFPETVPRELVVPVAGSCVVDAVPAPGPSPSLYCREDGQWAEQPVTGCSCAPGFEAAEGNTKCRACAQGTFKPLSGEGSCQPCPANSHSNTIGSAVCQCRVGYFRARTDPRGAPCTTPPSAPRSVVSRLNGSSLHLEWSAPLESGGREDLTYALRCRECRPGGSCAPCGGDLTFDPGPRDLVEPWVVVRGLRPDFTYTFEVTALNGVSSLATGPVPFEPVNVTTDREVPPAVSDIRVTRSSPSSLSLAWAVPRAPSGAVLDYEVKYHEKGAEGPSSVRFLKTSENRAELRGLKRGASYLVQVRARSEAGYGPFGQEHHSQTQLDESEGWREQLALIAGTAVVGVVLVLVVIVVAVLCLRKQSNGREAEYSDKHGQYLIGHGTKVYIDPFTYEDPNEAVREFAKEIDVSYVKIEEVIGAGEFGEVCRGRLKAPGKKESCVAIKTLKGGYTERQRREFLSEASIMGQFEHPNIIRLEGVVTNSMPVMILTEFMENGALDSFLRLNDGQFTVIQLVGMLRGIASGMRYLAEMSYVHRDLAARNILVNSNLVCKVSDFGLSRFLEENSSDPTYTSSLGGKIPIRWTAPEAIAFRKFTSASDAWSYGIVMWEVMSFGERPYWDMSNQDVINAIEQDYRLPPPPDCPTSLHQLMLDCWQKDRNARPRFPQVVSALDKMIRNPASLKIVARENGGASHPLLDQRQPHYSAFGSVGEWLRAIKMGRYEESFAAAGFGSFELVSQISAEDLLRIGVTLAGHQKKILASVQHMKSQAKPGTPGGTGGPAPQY
row,Compound,Kd
1,Oc1ccc(-c2nc(-c3ccncc3)c(-c3ccc(F)cc3)[nH]2)cc1 [SB-202190],> 10 µM
2,COCC(=O)NC/C=C/c1ccc2ncnc(Nc3ccc(Oc4ccc(C)nc4)c(C)c3)c2c1 [CP-724714],> 10 µM

# Molecular target: Serine/threonine-protein kinase 32C (Homo sapiens, UniProt Q86UX6)
# Sequence (Q86UX6 whole entry): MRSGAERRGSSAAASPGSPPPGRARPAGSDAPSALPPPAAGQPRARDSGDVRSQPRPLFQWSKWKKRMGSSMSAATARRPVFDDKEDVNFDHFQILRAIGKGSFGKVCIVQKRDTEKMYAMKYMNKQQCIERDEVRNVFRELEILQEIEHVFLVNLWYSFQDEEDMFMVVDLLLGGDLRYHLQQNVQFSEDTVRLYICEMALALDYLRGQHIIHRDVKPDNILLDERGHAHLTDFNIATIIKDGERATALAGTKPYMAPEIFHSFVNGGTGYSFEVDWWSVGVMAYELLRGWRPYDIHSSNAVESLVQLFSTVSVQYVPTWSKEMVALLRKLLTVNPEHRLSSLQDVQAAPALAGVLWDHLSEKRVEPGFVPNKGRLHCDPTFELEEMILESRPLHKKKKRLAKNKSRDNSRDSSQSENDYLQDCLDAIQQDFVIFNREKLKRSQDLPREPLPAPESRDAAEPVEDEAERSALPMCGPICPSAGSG
row,Compound,Kd
1,Oc1ccc(-c2nc(-c3ccncc3)c(-c3ccc(F)cc3)[nH]2)cc1 [SB-202190],> 10 µM
2,COCC(=O)NC/C=C/c1ccc2ncnc(Nc3ccc(Oc4ccc(C)nc4)c(C)c3)c2c1 [CP-724714],> 10 µM

# Molecular target: Serine/threonine-protein kinase PAK 5 (Homo sapiens, UniProt Q9P286)
# Sequence (Q9P286 whole entry): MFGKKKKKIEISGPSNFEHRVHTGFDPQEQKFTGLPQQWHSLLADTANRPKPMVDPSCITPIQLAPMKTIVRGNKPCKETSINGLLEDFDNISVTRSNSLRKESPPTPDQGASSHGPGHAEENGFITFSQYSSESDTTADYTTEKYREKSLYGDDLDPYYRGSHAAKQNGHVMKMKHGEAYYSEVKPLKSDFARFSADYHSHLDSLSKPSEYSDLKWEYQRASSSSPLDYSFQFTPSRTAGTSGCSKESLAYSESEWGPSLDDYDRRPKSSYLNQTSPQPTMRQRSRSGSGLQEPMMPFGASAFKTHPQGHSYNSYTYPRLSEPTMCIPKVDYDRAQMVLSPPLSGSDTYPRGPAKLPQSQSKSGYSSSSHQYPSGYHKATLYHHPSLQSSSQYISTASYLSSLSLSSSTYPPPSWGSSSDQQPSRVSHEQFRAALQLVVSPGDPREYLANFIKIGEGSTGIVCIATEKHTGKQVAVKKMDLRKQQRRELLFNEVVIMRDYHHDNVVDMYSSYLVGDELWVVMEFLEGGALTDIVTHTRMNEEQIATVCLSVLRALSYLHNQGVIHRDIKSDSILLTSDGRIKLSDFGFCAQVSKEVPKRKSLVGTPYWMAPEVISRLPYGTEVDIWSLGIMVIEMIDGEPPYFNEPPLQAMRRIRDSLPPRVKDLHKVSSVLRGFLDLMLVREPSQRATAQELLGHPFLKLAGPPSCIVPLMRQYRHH
row,Compound,Kd
1,Oc1ccc(-c2nc(-c3ccncc3)c(-c3ccc(F)cc3)[nH]2)cc1 [SB-202190],> 10 µM
2,COCC(=O)NC/C=C/c1ccc2ncnc(Nc3ccc(Oc4ccc(C)nc4)c(C)c3)c2c1 [CP-724714],> 10 µM

# Molecular target: Leukocyte tyrosine kinase receptor (Homo sapiens, UniProt P29376)
# Sequence (P29376 whole entry): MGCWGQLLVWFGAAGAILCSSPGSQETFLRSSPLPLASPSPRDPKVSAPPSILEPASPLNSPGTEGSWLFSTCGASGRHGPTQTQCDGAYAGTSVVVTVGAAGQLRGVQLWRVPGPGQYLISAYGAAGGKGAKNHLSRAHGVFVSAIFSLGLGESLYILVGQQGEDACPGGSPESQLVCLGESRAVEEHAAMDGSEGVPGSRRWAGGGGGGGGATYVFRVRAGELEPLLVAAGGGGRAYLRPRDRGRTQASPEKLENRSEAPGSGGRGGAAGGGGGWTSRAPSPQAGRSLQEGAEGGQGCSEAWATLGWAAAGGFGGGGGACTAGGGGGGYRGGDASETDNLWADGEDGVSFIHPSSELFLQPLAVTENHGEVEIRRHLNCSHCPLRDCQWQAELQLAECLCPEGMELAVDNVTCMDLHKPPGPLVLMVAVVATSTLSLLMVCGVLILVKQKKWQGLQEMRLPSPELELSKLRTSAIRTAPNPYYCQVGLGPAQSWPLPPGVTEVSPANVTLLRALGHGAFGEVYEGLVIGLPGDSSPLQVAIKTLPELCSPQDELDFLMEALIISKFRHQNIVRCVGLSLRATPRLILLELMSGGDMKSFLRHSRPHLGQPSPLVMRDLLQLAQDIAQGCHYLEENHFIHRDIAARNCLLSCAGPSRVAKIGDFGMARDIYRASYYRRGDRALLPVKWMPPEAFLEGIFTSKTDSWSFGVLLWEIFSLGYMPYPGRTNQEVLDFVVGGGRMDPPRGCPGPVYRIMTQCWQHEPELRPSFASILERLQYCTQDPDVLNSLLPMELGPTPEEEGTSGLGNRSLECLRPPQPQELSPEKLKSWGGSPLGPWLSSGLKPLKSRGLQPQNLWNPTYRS
row,Compound,Kd
1,Oc1ccc(-c2nc(-c3ccncc3)c(-c3ccc(F)cc3)[nH]2)cc1 [SB-202190],> 10 µM
2,COCC(=O)NC/C=C/c1ccc2ncnc(Nc3ccc(Oc4ccc(C)nc4)c(C)c3)c2c1 [CP-724714],> 10 µM

# Molecular target: Tyrosine-protein kinase ABL2 (Homo sapiens, UniProt P42684)
row,Compound,Kd
1,Oc1ccc(-c2nc(-c3ccncc3)c(-c3ccc(F)cc3)[nH]2)cc1 [SB-202190],> 10 µM
2,COCC(=O)NC/C=C/c1ccc2ncnc(Nc3ccc(Oc4ccc(C)nc4)c(C)c3)c2c1 [CP-724714],> 10 µM

# Molecular target: T3, Interleukin-1 receptor-associated kinase 3 (Homo sapiens, UniProt Q9Y616)
# T3 sequence (Q9Y616 whole entry): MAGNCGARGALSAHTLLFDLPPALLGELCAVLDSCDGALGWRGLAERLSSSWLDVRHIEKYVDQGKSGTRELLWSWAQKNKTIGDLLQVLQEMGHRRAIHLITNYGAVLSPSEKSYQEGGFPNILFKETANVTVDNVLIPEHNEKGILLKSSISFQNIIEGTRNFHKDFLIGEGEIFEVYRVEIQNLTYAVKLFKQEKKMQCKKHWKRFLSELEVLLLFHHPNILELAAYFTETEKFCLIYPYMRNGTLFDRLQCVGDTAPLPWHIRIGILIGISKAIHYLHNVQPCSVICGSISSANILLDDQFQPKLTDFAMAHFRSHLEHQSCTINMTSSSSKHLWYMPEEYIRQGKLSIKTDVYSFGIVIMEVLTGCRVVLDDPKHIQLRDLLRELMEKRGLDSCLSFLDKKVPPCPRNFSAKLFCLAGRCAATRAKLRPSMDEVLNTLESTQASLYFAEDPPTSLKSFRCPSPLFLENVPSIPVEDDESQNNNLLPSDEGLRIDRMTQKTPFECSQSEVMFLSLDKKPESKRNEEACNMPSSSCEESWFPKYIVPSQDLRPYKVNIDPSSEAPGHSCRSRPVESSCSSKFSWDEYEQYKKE
row,Compound,Kd
1,Oc1ccc(-c2nc(-c3ccncc3)c(-c3ccc(F)cc3)[nH]2)cc1 [SB-202190],> 10 µM
2,COCC(=O)NC/C=C/c1ccc2ncnc(Nc3ccc(Oc4ccc(C)nc4)c(C)c3)c2c1 [CP-724714],> 10 µM

# Molecular target: Activin receptor type-2B (Homo sapiens, UniProt Q13705)
# Sequence (Q13705 whole entry): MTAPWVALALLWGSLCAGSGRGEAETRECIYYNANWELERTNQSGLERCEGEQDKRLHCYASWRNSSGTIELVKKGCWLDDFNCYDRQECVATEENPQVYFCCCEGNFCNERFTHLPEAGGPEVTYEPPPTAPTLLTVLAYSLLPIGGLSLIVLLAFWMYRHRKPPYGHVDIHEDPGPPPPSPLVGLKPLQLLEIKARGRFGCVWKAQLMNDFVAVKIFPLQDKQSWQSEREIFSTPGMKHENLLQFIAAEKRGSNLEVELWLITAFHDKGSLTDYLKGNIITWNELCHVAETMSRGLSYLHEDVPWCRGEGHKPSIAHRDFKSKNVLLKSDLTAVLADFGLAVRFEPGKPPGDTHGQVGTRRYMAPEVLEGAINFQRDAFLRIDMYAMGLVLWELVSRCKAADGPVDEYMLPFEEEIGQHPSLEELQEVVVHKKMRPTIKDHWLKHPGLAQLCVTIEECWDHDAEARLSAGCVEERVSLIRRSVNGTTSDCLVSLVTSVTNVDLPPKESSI
row,Compound,Kd
1,Oc1ccc(-c2nc(-c3ccncc3)c(-c3ccc(F)cc3)[nH]2)cc1 [SB-202190],4.8 µM
2,COCC(=O)NC/C=C/c1ccc2ncnc(Nc3ccc(Oc4ccc(C)nc4)c(C)c3)c2c1 [CP-724714],> 10 µM

# Molecular target: Mitogen-activated protein kinase kinase kinase kinase 1 (Homo sapiens, UniProt Q92918)
row,Compound,Kd
1,Oc1ccc(-c2nc(-c3ccncc3)c(-c3ccc(F)cc3)[nH]2)cc1 [SB-202190],> 10 µM
2,COCC(=O)NC/C=C/c1ccc2ncnc(Nc3ccc(Oc4ccc(C)nc4)c(C)c3)c2c1 [CP-724714],> 10 µM

# Molecular target: cAMP-dependent protein kinase catalytic subunit beta (Homo sapiens, UniProt P22694)
row,Compound,Kd
1,Oc1ccc(-c2nc(-c3ccncc3)c(-c3ccc(F)cc3)[nH]2)cc1 [SB-202190],0.53 µM
2,COCC(=O)NC/C=C/c1ccc2ncnc(Nc3ccc(Oc4ccc(C)nc4)c(C)c3)c2c1 [CP-724714],> 10 µM
